Results published in patent US7563592B2, “Alizarin-based chromogenic substrates, their uses and composition containing same” (Biomerieux, S.A., priority 1999, dated 2009).

Experiments:
[1] = test system: Klebsiella pneumoniae 023; experiment: β-glucosidase detection in API strip wells (Example 6); settings: 0.4 g/l
Listeria innocua 036 = experiment: as above; settings: 0.4 g/l
[2] = test system: Enterococcus faecalis 117; experiment: Comparison of glucoside substrates in semi-solid Columbia medium (Example 7); assay type: cell-based
eight (8) species tested = experiment: β-glucosidase detection in API strip wells, all species together (Example 6); assay type: cell-based; settings: of the eight (8) species tested; 0.4 g/l
[3] = test system: Listeria monocytogenes 022; experiment: β-glucosidase detection in API strip wells (Example 6); settings: 0.4 g/l
[4] = test system: Klebsiella pneumoniae 023; experiment: Comparison of glucoside substrates in semi-solid Columbia medium (Example 7); assay type: cell-based
Listeria seeligeri 080 = experiment: β-glucosidase detection in API strip wells (Example 6); settings: 0.4 g/l; 24 H
Enterococcus faecium 009 = experiment: as above; settings: 0.4 g/l
Citrobacter koseri 059 = experiment: Comparison of glucoside substrates in semi-solid Columbia medium (Example 7); assay type: cell-based
Listeria ivanovii 018 = experiment: β-glucosidase detection in API strip wells (Example 6); settings: 0.4 g/l
[5] = test system: eight strains possessing β-galactosidase activity; experiment: Fluorescent check of β-galactosidase activity in the eight discordant strains (Example 2); assay type: cell-based; settings: all eight strains that selectively hydrolyzed Alizarin-2-β-D-galactoside
Source text: The vast majority of strains (96.5%) reacted in exactly the same way—i.e. either positively or negatively—with both substrates. Eight strains selectively hydrolyzed Alizarin-2-β-D-galactoside. […] Therefore, these substrates are extremely sensitive and can be used at very low concentrations.

[6] = test system: Klebsiella pneumoniae 023; experiment: β-galactosidase detection in semi-solid Columbia medium (Example 1); assay type: cell-based; settings: 0.2 g/l, no iron citrate; 48 H
Escherichia coli 115 = experiment: as above; assay type: cell-based; settings: 0.2 g/l, no iron citrate
Serratia marcescens 042 = experiment: as above; assay type: cell-based; settings: 0.2 g/l, no iron citrate
[7] = 0.15 g/l, no iron citrate, 18 H
[8] = 0.15 g/l, no iron citrate, 24 H
[9] = 0.15 g/l, no iron citrate, 48 H
[10] = 0.05 g/l + iron citrate 0.05 g/l, 18 H
[11] = 0.05 g/l + iron citrate 0.05 g/l, 24 H
[12] = 0.05 g/l + iron citrate 0.05 g/l, 48 H
[13] = 0.1 g/l + iron citrate 0.05 g/l, 18 H
[14] = 0.1 g/l + iron citrate 0.05 g/l, 24 H
[15] = 0.1 g/l + iron citrate 0.05 g/l, 48 H

OC[C@H]1O[C@@H](Oc2c[nH]c3cc(Cl)ccc23)[C@H](O)[C@@H](O)[C@@H]1O [reference compound]
2 arbitrary units: Intensity [2, 8] | Intensity [4, 7] | Intensity (Citrobacter koseri 059; [9])
Pink: Color observed ([1]; 4 H) | Color observed ([1]; 24 H) | Color observed (Listeria innocua 036; 4 H) | Color observed (Listeria innocua 036; 24 H) | Color [2, 7] | Color [2, 8] | Color [2, 9] | Color observed ([3]; 4 H) | Color observed ([3]; 24 H) | Color [4, 7] | Color [4, 8] | Color [4, 9] | Color observed (Listeria seeligeri 080) | Color observed (Enterococcus faecium 009; 4 H) | Color observed (Enterococcus faecium 009; 24 H) | Color (Citrobacter koseri 059; [7]) | Color (Citrobacter koseri 059; [8]) | Color (Citrobacter koseri 059; [9]) | Color observed (Listeria ivanovii 018; 4 H) | Color observed (Listeria ivanovii 018; 24 H)
1.5 arbitrary units: Intensity [2, 7]
3 arbitrary units: Intensity [4, 9]
0.5 arbitrary units: Intensity (Citrobacter koseri 059; [7])
6 species: species in which activity was detected (eight (8) species tested)
2.5 arbitrary units: Intensity [2, 9] | Intensity [4, 8]
1 arbitrary units: Intensity (Citrobacter koseri 059; [8])

Cc1cc(=O)oc2cc(O[C@@H]3O[C@H](CO)[C@H](O)[C@H](O)[C@H]3O)ccc12 [4-Methylumbelliferyl-β-D-galactoside]
production of a fluorescent signal: signal in the presence of the substrate [5]

O=C1c2ccccc2C(=O)c2c1ccc(O)c2O[C@@H]1O[C@H](CO)[C@@H](O)[C@H](O)[C@H]1O [1-Alizarin1-β-D-glucoside, Alizarin-1-β-D-glucoside]
4 arbitrary units: Intensity [2, 11] | Intensity [2, 12] | Intensity [2, 14] | Intensity [2, 15] | Intensity [4, 14] | Intensity [4, 15] | Intensity (Citrobacter koseri 059; [15])
2.5 arbitrary units: Intensity [4, 10] | Intensity (Citrobacter koseri 059; [12]) | Intensity (Citrobacter koseri 059; [13])
3.5 arbitrary units: Intensity [2, 10] | Intensity [2, 13] | Intensity [4, 12] | Intensity [4, 13]
Mauve: Color (Citrobacter koseri 059; [10]) | Color (Citrobacter koseri 059; [11]) | Color (Citrobacter koseri 059; [12]) | Color (Citrobacter koseri 059; [13]) | Color (Citrobacter koseri 059; [14]) | Color (Citrobacter koseri 059; [15])
1.5 arbitrary units: Intensity (Citrobacter koseri 059; [10])
Purple: Color [2, 10] | Color [2, 11] | Color [2, 12] | Color [2, 13] | Color [2, 14] | Color [2, 15] | Color [4, 10] | Color [4, 11] | Color [4, 12] | Color [4, 13] | Color [4, 14] | Color [4, 15]
2 arbitrary units: Intensity (Citrobacter koseri 059; [11])
3 arbitrary units: Intensity [4, 11] | Intensity (Citrobacter koseri 059; [14])

OC[C@H]1O[C@@H](Oc2c[nH]c3cc(Cl)ccc23)[C@H](O)[C@@H](O)[C@H]1O [6-Chloro-3-indolyl-β-D-galactoside, reference compound]
3.5: Intensity (Escherichia coli 115; 18 H) | Intensity (Escherichia coli 115; 24 H) | Intensity (Escherichia coli 115; 48 H) | Intensity (Serratia marcescens 042; 48 H)
0.8: Intensity (Serratia marcescens 042; 24 H)
pink: Color [6] | Color (Escherichia coli 115; 18 H) | Color (Escherichia coli 115; 24 H) | Color (Escherichia coli 115; 48 H) | Color (Serratia marcescens 042; 18 H) | Color (Serratia marcescens 042; 24 H) | Color (Serratia marcescens 042; 48 H)
0.3: Intensity [6] | Intensity (Serratia marcescens 042; 18 H)
